This is an account of results in ChEMBL document CHEMBL1129259 (J Med Chem, 1996).

Broadly, the Ki is the dissociation constant of the complex between target and ligand, obtained from inhibition or displacement. Read a low Ki as a stronger hold on the target.

The assay deals with Melatonin receptor (Gallus gallus, UniProt P49288+P51050+P49285). Kind of assay: In vitro binding affinity against melatonin receptor using 2-[125I]iodomelatonin (0.05 nM) and chicken brain membranes. Set-up: species or system Membrane.
The molecule `CC(=O)NC1Cc2cccc3cccc(c23)C1` displayed a Ki of 195 nM.
In the case of `COc1ccc2ccc(O)c3c2c1CC(NC(C)=O)C3` (stereo not drawn) it was 22.8 nM; in that of `COc1ccc2ccc(OC)c3c2c1CC(NC(C)=O)C3`, 0.7 nM; in that of `CCC(=O)NC1Cc2cccc3ccc(OC)c(c23)C1` (stereo not drawn), 6 nM.
With `COc1ccc2cccc3c2c1CC(NC(C)=O)C3` (stereo not drawn) the figure was 28.7 nM; with `CC(=O)NCCc1c[nH]c2ccc(O)cc12` [ACETYLSEROTONIN], 1640 nM; with `COc1cc2ccccc2c2c1CC(NC(C)=O)CC2` (stereo not drawn), 168 nM.
In the case of `COc1c2c(cc3ccccc13)CCC(NC(C)=O)C2` (stereo not drawn) it was 273 nM.
